Results published in patent US7705052B2, “Sulfonamide derivatives for the treatment of diabetes” (Merck Serono SA, priority 2003, dated 2010).

System: db/db mice
Experiment: In vivo assay in db/db mice (model of postprandial glycemia)
Conditions: db/db mice fasted 20 hours, 50 mg/kg p.o., 4 hrs after drug administration, compared to vehicle-treated animals (Group 1)
Description: In Vivo Assay in db/db Mice
The following assay aims at determining the anti-diabetic effect of the test compounds of formula (I) in a model of postprandial glycemia in db/db mice, in vivo.
The assay was performed as follows:
A total of 18 db/db mice (about 8-9 weeks; obtained from IFFACREDO, l'Arbreste, France) were fasted during 20 hours.
3 groups, each consisting of 6 animals were formed: • Group 1: The animals were administered (per os) a dose of 10 mg/kg of vehicle. • Group 2: The animals were administered (per os) a dose of 30 mg/kg of the test compound according to formula (I). • Group 3: The animals were administered (per os) a dose of 50 mg/kg of the test compound according to formula (I).
After oral administration of the compounds of formula (I) solubilized or suspended in CarboxyMethylCellulose (0.5%), Tween 20 (0.25%) and water as vehicle, the animals had access to commercial food (D04, UAR, Villemoisson/Orge, France) ad libitum. The diabetic state of the mice was verified by determining the blood glucose level before drug administration. Blood glucose and serum insulin levels were then determined 4 hrs after drug administration. […]
Changes in blood glucose and serum insulin of drug treated mice were expressed as a percentage of control (group 1: vehicle treated mice).

CCCCNC1CCN(S(=O)(=O)c2ccc(CNC(=O)c3ccc(Cl)cc3)s2)CC1 [4-chloro N-[(5-{[(butylamino)piperidin-1-yl]sulfonyl}thien-2-yl)methyl]benzamide]
decrease in the (serum/blood) insulin level (ELISA): 61%
decrease in blood glucose level induced by food intake: 42%
